Patent publication US8703770B2, “Pyridazine carboxamide orexin receptor antagonists” (Merck Sharp & Dohme Corp., priority 2008, dated 2014)

Biological target: OX2R (Homo sapiens (Human), UniProt O43614)
Test: radioligand binding assay, membranes from CHO cells expressing OX2 receptor
Details: CHO cell membranes

OX2R, sequence (O43614 whole entry): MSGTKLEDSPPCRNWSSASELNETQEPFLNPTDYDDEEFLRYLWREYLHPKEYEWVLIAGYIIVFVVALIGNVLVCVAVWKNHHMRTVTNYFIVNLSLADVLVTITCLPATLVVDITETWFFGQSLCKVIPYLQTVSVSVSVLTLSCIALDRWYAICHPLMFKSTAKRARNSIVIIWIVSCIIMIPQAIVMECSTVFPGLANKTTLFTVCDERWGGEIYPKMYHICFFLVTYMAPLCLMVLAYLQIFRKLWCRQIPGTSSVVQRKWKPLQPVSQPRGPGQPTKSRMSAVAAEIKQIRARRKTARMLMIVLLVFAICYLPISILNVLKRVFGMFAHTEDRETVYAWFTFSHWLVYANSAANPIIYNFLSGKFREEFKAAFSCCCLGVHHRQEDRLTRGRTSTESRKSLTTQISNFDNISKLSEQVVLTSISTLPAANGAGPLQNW

Ki [nM] | Structure (SMILES)
0.96 | COc1ccc(CNC(=O)c2cc(-c3cc(C)cc(Cl)c3)nnc2N2CCOCC2)cc1OC [Compound 2-2, 6-(3-chloro-5-methylphenyl)-N-(3,4-dimethoxybenzyl)-3-morpholin-4-ylpyridazine-4-carboxamide]
3.3 | COc1ccc(CNC(=O)c2cc(-c3cc(C)cc(C)c3)nnc2-c2cnn(C)c2)cc1OC [Compound 1-5, N-(3,4-dimethoxybenzyl)-6-(3,5-dimethylphenyl)-3-(1-methyl-1H-pyrazol-4-yl)pyridazine-4-carboxamide]
